pIC50: −log10 of the molar value.
Experiments:
[1] = system: rat peritoneal mast cells; assay: Degranulation inhibiting activity in rat peritoneal mast cells (β-hexosaminidase release); format: cell-based; settings: 10 μM compound; co-stimulation with 3 μM LysoPS and 100 ng/ml DNP-BSA = 100%, spontaneous degranulation = 0%
Experimental: Ice-cooled mast cell medium (hereunder called MCM: 150 mM NaCl, 3.7 mM KCl, 3.0 mM NaH2PO4, 3.5 mM KH2PO4, 5.6 mM (D)-Glucose, 0.1% bovine serum albumin (BSA), 0.1% gelatin, 10 U/ml heparin, pH 6.8) was injected intraperitoneally into rats, about 40 ml per rat, the abdomens were massaged for about 2 minutes and then opened along the median line, and ascites was collected. The collected ascites were filtered with a cell strainer (Becton Dickinson) and centrifuged for 7 minutes at 50×g, and the precipitated cells were suspended in MCM and then centrifuged again for 7 minutes at 50×g. The precipitated cells were suspended in 5 ml of MCM, layered over 2 ml of 32% (w/v) BSA solution (dissolved in 0.9% NaCL), and left for 20 minutes at room temperature. This was centrifuged for 15 minutes at room temperature at 300×g, the cells between the MCM and BSA solution were discarded, and the precipitated cells were suspended in MCM and washed twice by being centrifuged for 5 minutes at 300×g. The precipitated cells were suspended in assay buffer (150 mM NaCl, 3.7 mM KCl, 3.0 mM NaH2PO4, 3.5 mM KH2PO4, 0.9 mM CaCl2, 5.6 mM (D)-Glucose, 0.01% BSA, pH 6.8), and these cells were used in the following test.
RPMC cells suspended in assay buffer were passively sensitized by adding 10 μg/ml of monoclonal mouse anti-DNP-IgE (Seikagaku) and leaving them for 30 minutes on ice. After 5 minutes of centrifugation at 300×g, the precipitated cells were washed 3 times with assay buffer. The RPMC cells suspended in assay buffer were dispensed on 96-well V-bottom plates, 2×10^4 cells per well. The assay was performed with n=3 under each set of reaction conditions. The plates were maintained for 5 minutes at 37° C., the test compound was added, and after 15 minutes lysoPS (Sigma) was added to a final concentration of 3 μM and DNP-BSA (Calbiochem) to a final concentration of 100 ng/ml for a final capacity of 200 and left on a water bath at 37° C. After 20 minutes, the plate was ice cooled to stop RPMC activation, followed by 5 minutes of centrifugation at 300×g, and β-hexosaminidase activity in the supernatant was measured using 4-methylumbelliferyl-2-acetamido-2-deoxy-β-D-glucopyranoside (Wako Pure Chemical) degradation as the indicator.

human GPR34 [2] = target: T1, human GPR34 (Homo sapiens, UniProt Q9UPC5); assay: Human GPR34 antagonist activity as indicated by cAMP in human GPR34-expressing CHO cells; format: cell-based; design: expressed in transfected cells
Experimental: Human GPR34-expressing CHO cells were maintained in nucleic acid-free MEM-a (Invitrogen) containing 10% dialyzed FBS (Invitrogen) and penicillin and streptomycin (BioWhittaker) (hereunder described as culture medium), and on the day before assay the cells were stripped with trypsin/EDTA (Invitrogen), centrifuged, re-suspended in culture medium and seeded 2×10^5 per well, 1 ml/well on a 24-well plate (Nunc). The seeded cells were cultured overnight at 37° C. in a CO2 incubator, and subjected to cAMP assay the next day.
The plate was washed twice, 500 μL/well with Hank's balanced salt solution (HBSS, Invitrogen) containing 20 mM HEPES (1 M HEPES solution, Dojindo) with 0.2 mM 3-isobutyl-1-methylxanthine (IBMX, Wako Pure Chemical) added thereto (hereunder described as assay buffer (HBSS+HEPES-FIBMX)), and kept warm for 30 minutes in a water bath at 37° C. Next, 250 μL of assay buffer (HBSS+HEPES+IBMX) was substituted, and the plate was kept for a further 15 minutes in a water bath at 37° C. 2 μl of GPR34 antagonist compound solution at 250× the final concentration was added and gently stirred with a plate mixer, 2 μL, of lysoPS (Sigma or Alexis) at 250× the final concentration and 5 μM (2× the final concentration) of Forskolin (Wako Pure Chemical) were added, and 250 μL, of assay buffer (HBSS+HEPES+IBMX) was added and reacted for 30 minutes in a water bath at 37° C. In the case of the human GPR34-expressing CHO cells, 2 μL of 50 μM lysoPS was added so that the final concentration would be roughly the EC50 value of 0.2 μM. After completion of the reaction, intracellular cAMP was detected by competitive EIA using a cAMP Screen System (Applied Biosystems). After completion of the assay, 200 μL, of the Assay/lysis buffer for the cAMP Screen System was substituted, and intracellular cAMP was extracted by maintaining the cells for about 40 minutes at 37° C. EIA was then performed in accordance with the cAMP Screen Systems protocols to assay intracellular cAMP.
Relative percentage values were calculated by Microsoft Excel with the cAMP level with only assay buffer (HBSS+HEPES+IBMX) added (“None” in the table) given as 0%, and the cAMP level with the final concentration 2.5 μM Forskolin added given as 100%.

human GPR34 [3] = target: T1, human GPR34; assay: Human GPR34 antagonist activity indicated by changes in intracellular calcium concentration (FLIPR); format: cell-based; design: expressed in transfected cells; host or cells: CHO cells (human GPR34CHO line) stably transfected with pCR3.1 human lung Gα16; settings: CHO cells expressing human GPR34/Gα16, against 2 μM lysoPS final concentration, Fluo-3AM
Experimental: CHO cells expressing human GPR34/Gα were diluted to 3×10^4/100 μl in cell culture medium [nucleic acid-free Minimum Essential Alpha Medium (Invitrogen) containing 10% dialyzed fetal bovine serum (Invitrogen) 0.5 mg/ml Geneticin (Invitrogen), penicillin and streptomycin (Invitrogen)], dispensed 100 μl per well into a Black walled 96-well plate (Costar), and cultured overnight in a CO2 incubator. Changes in intracellular calcium concentration were measured with a FLIPR (Molecular Device) by the methods described below.
50 μg of Fluo-3AM (Dojindo) was dissolved in 21 μl of DMSO (Dojindo), an equal amount of 20% pluronic acid (Molecular Probes) was added and mixed, and this was added to 10.6 ml of assay buffer [prepared by adding 20 ml of 1 M HEPES (pH 7.4, Dojindo) to HBSS (Invitrogen), and then adding 10 ml of a solution obtained by dissolving 710 mg of Probenecid (Sigma) in 5 ml of 1 N NaOH and then adding and mixing 5 ml of the HBSS/HEPES solution)] with 105 μl of fetal bovine serum added thereto to prepare a fluorescent dye solution. The medium was removed from the cell plate, 100 μl per well of the fluorescent dye solution was immediately poured in, and the cells were cultured for 1 hour in a CO2 incubator to incorporate the fluorescent dye into the cells. After culture, the cells were washed with the aforementioned assay buffer. The compound was dissolved in DMSO (Wako Pure Chemical), diluted with DMSO as necessary, added to the aforementioned assay buffer to the target concentration and poured into the plate. To measure antagonist activity, 8 μM lysophosphatidyl serine (lysoPS, Alexis) solution (2 μM final concentration during reaction) was poured into the plate, which was set in the FLIPR. Following these preliminaries, the agonist effect was measured in the FLIPR by measuring changes in intracellular calcium concentration up to 180 seconds after addition of the sample, and after 200 seconds lysoPS was added and the antagonist effect was measured. In the case of the agonist effect, the EC50 value of the added compound was calculated from the dose reaction curve using changes in fluorescent strength from 0 to 180 seconds after the start of the reaction. In the case of the antagonist effect, the IC50 was calculated from the dose reaction curve using changes in maximum fluorescent strength after 200 to 380 seconds of reaction time. The data was analyzed using “GraphPad PRISM4”.

T1 sequence (Q9UPC5 whole entry): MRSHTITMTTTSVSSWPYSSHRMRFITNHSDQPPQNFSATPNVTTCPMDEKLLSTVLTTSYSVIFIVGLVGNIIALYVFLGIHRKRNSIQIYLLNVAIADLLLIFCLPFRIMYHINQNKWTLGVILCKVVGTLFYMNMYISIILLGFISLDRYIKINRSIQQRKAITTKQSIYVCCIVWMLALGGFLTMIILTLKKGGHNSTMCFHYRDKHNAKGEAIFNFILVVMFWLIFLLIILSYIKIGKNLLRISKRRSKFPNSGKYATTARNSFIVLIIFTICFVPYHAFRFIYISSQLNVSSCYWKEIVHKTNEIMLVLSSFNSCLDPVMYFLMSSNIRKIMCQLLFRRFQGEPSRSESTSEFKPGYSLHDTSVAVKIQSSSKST

## COC(=O)CC(=O)NC1(C(=O)O)Cc2ccc(-c3ccc(Cl)cc3)cc2C1 (stereo not shown) [Example B13]
[1]
  degranulation of rat peritoneal mast cells due to LysoPS and DNP-BSA stimulation: 10%

## O=C(Cc1ccc(OCc2ccc(F)cc2)cc1)NC1(C(=O)O)Cc2ccc(-c3ccc(Cl)cc3)cc2C1 (stereo not shown) [Example B134]
other
  melting point: 208 to 209 °C
Human GPR34 [2]; 10 μM compound + 2.5 μM Forskolin + 0.2 μM LysoPS, buffer only = 0%, 2.5 μM Forskolin = 100%
  cAMP (%): 299%
Human GPR34 [2]; at 10 μM
  restoration of cAMP levels (in words): restored cAMP levels to at or above the level before Forskolin stimulus

## O=C(Cc1ccc(OCc2ccccc2)cc1)NC1(C(=O)O)Cc2ccc(-c3ccc(Cl)cc3)cc2C1 (stereo not shown) [Example B174, 2-({[4-(Benzyloxy)phenyl]acetyl}amino)-5-(4-chlorophenyl)indan-2-carboxylic acid]
[1]
  degranulation of rat peritoneal mast cells due to LysoPS and DNP-BSA stimulation: 8%

## Cc1c(C(=O)N[C@@H](Cc2ccc(OCc3ccccc3)cc2)C(=O)O)oc2cc(-c3ccc(Cl)cc3)ccc12 [Example C115, O-Benzyl-N-{[6-(4-chlorophenyl)-3-methyl-1-benzofuran-2-yl]carbonyl}-L-tyrosine]
[1]
  degranulation of rat peritoneal mast cells due to LysoPS and DNP-BSA stimulation: 20%
other
  melting point: 143 to 144 °C

## CCCOc1ccc(-c2ccc3sc(C(=O)N[C@@H](Cc4ccc(OCc5ccc(F)cc5)cc4)C(=O)O)cc3c2)cc1 [Example C131, O-(4-Fluorobenzyl)-N-{[5-(4-propoxyphenyl)-1-benzothiophene-2-yl]carbonyl}tyrosine]
[1]
  degranulation of rat peritoneal mast cells due to LysoPS and DNP-BSA stimulation: 10.2%
Human GPR34 [3]
  pIC50: ≥ 6.00
other
  melting point: 211 to 212 °C

## O=C(N[C@@H](Cc1ccc(OCc2ccc(F)cc2)cc1)C(=O)O)c1cc2cc(-c3ccc(Cl)cc3)ccc2s1 [Example C133, N-{[5-(4-Chlorophenyl)-1-benzothiophene-2-yl]carbonyl}-O-(4-fluorobenzyl)tyrosine]
[1]
  degranulation of rat peritoneal mast cells due to LysoPS and DNP-BSA stimulation: 12.4%
Human GPR34 [3]
  pIC50: ≥ 6.00
other
  melting point: 189 to 190 °C

## O=C(N[C@@H](Cc1ccc(OCc2ccc(F)cc2)cc1)C(=O)O)c1cc2ccc(-c3ccc(Cl)cc3)cc2o1 [Example C157, N-{[6-(4-Chlorophenyl)-1-benzofuran-2-yl]carbonyl}-O-(4-fluorobenzyl) tyrosine]
[1]
  degranulation of rat peritoneal mast cells due to LysoPS and DNP-BSA stimulation: 4.8%
Human GPR34 [3]
  pIC50: ≥ 6.00
other
  melting point: 166 to 168 °C

## CN(C(=O)c1cn2ccc(-c3ccc(Cl)cc3)cc2n1)[C@@H](Cc1ccc(OCc2ccccc2)cc1)C(=O)O [Example E51, O-Benzyl-N-{[7-(4-chlorophenyl)imidazo[1,2-a]pyridin-2-yl]carbonyl}-N-methyltyrosine]
[1]
  degranulation of rat peritoneal mast cells due to LysoPS and DNP-BSA stimulation: 5.0%
Human GPR34 [3]
  pIC50: ≥ 6.00
other
  melting point: 222 °C

## O=C(N[C@@H](Cc1ccc(OCc2ccccc2)cc1)C(=O)O)c1cn2nc(SCc3ccccc3)ccc2n1 [Example E54, O-Benzyl-N-{[6-(benzylthio)imidazo[1,2-b]pyridazine-2-yl]carbonyl}tyrosine]
Human GPR34 [3]
  pIC50: ≥ 6.00
other
  melting point: 178 to 179 °C

## O=C(NC(Cc1ccc(OCc2ccccc2)cc1)C(=O)O)c1cn2cc(CCc3ccccc3)ccc2n1 (stereo not shown) [Example E57, O-Benzyl-N-{[6-(2-phenethyl)imidazo[1,2-a]pyridin-2-yl]carbonyl}tyrosine]
[1]
  degranulation of rat peritoneal mast cells due to LysoPS and DNP-BSA stimulation: 8.3%
other
  melting point: 239 °C (dec.)

## Cc1ccc(COc2ccc(C[C@H](NC(=O)c3cn4ccc(-c5ccc(Cl)cc5)cc4n3)C(=O)O)cc2)cc1 [Example E59, N-{[7-(4-Chlorophenyl)imidazo[1,2-a]pyridin-2-yl]carbonyl}-O-(4-methylbenzyl)tyrosine]
[1]
  degranulation of rat peritoneal mast cells due to LysoPS and DNP-BSA stimulation: 5.1%
Human GPR34 [3]
  pIC50: ≥ 6.00
other
  melting point: 262 °C

## O=C(N[C@@H](Cc1ccc(OCc2ccc(Cl)cc2)cc1)C(=O)O)c1cn2ccc(-c3ccc(Cl)cc3)cc2n1 [Example E63, O-(4-Chlorobenzyl)-N-{[7-(4-chlorophenyl)imidazo[1,2-a]pyridin-2-yl]carbonyl}tyrosine]
[1]
  degranulation of rat peritoneal mast cells due to LysoPS and DNP-BSA stimulation: 5.7%
Human GPR34 [3]
  pIC50: ≥ 6.00
other
  melting point: 261 °C

## N#Cc1ccc(COc2ccc(C[C@H](NC(=O)c3cn4ccc(-c5ccc(Cl)cc5)cc4n3)C(=O)O)cc2)cc1 [Example E64, N-{[7-(4-Chlorophenyl)imidazo[1,2-a]pyridin-2-yl]carbonyl}-O-(4-cyanobenzyl)tyrosine]
Human GPR34 [3]
  pIC50: ≥ 6.00
other
  melting point: 263 °C

## CCc1ccc(COc2ccc(C[C@H](NC(=O)c3cn4ccc(-c5ccc(Cl)cc5)cc4n3)C(=O)O)cc2)cc1 [Example E65, N-{[7-(4-Chlorophenyl)imidazo[1,2-a]pyridin-2-yl]carbonyl}-O-(4-ethylbenzyl) tyrosine]
[1]
  degranulation of rat peritoneal mast cells due to LysoPS and DNP-BSA stimulation: 8.8%
Human GPR34 [3]
  pIC50: ≥ 6.00
other
  melting point: 245 °C
